Test results from publication PMC11594981 (International Journal of Molecular Sciences, 2024).

Target: T1, CYP3A4 (Homo sapiens, UniProt P08684)
T1 construct: recombinant CYP3A4 (BACULOSOMES Plus reagent)
Assay: fluorogenic substrate turnover by recombinant CYP3A4 (Vivid kit)
Assay type: biochemical

T1 sequence (P08684 2-503): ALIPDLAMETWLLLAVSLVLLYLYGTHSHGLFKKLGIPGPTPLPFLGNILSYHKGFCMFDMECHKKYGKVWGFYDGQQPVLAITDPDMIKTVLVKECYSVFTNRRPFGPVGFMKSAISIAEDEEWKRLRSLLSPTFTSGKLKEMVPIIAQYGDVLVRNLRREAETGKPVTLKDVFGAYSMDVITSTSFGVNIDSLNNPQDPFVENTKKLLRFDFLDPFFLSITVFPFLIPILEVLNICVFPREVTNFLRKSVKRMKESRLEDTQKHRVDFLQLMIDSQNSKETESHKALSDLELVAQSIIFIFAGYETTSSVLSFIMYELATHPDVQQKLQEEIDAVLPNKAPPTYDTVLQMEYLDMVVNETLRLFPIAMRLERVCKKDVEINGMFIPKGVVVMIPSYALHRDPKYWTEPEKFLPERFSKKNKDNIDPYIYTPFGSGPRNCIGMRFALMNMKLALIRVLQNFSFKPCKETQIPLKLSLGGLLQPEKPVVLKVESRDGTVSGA

N#Cc1cc2ccc(OCOCc3ccccc3)cc2oc1=O [BOMCC, 7-benzyloxymethoxy-3-cyano-coumarin]
fluorogenic substrate turnover by recombinant CYP3A4 (Vivid kit): Inhibition of BOMC transformation by CYP3A4 in the presence of ivermectin
